Experimental data from ChEMBL document CHEMBL1681651, “A broad spectrum anticancer nucleoside with selective toxicity against human colon cells in vitro” (2011).

Columns and labels:
Format in all cases: functional
HT-29 = assay: Growth inhibition of human HT-29 cells assessed as cell growth at 100 uM after 48 hrs by SRB assay; settings: HT-29, 48 h, read-out: Activity
RXF 393 [1] = assay: Growth inhibition of human RXF393 cells assessed as cell growth at 100 uM after 48 hrs by SRB assay; settings: RXF 393, 48 h, read-out: Activity
OVCAR-8 [2] = assay: Growth inhibition of human OVCAR8 cells assessed as cell growth at 1 mM after 48 hrs by SRB assay; settings: OVCAR-8, 48 h, read-out: Activity
786-0 = assay: Growth inhibition of human 786-0 cells after 48 hrs by […] growth inhibition assay; settings: 786-0, 48 h
[3] = Growth inhibition of human […] cells assessed as cell growth at 1 mM after 48 hrs by SRB assay; settings: read-out: Activity
HCT-15 = assay: Growth inhibition of human HCT15 cells assessed as cell growth at 10 uM after 48 hrs by SRB assay; settings: HCT-15, 48 h, read-out: Activity
SF-268 = assay: Growth inhibition of human SF268 cells assessed as cell growth at 10 uM after 48 hrs by SRB assay; settings: SF-268, 48 h, read-out: Activity
A498 = assay: Growth inhibition of human A498 cells assessed as cell growth at 0.1 uM after 48 hrs by SRB assay; settings: A498, 48 h, read-out: Activity
BT-549 [4] = assay: Growth inhibition of human BT549 cells assessed as cell growth at 1 uM after 48 hrs by SRB assay; settings: BT-549, 48 h, read-out: Activity
EKVX = assay: Growth inhibition of human EKVX cells after 48 hrs by […] growth inhibition assay
BT-549 [5] = assay: Growth inhibition of human BT549 cells after 48 hrs by […] growth inhibition assay; settings: BT-549, 48 h
HOP-62 = assay: Growth inhibition of human HOP62 cells assessed as cell growth at 1 uM after 48 hrs by SRB assay; settings: HOP-62, 48 h, read-out: Activity
U-251 = assay: Growth inhibition of human U251 cells assessed as cell growth at 100 uM after 48 hrs by SRB assay; settings: U-251, 48 h, read-out: Activity
NCI-H460 = assay: Growth inhibition of human NCI-H460 cells assessed as cell growth at 10 uM after 48 hrs by SRB assay; settings: NCI-H460, 48 h, read-out: Activity
SK-MEL-5 = assay: Growth inhibition of human SK-MEL-5 cells assessed as cell growth at 1 mM after 48 hrs by SRB assay; settings: SK-MEL-5, 48 h, read-out: Activity
SF-295 = assay: Growth inhibition of human SF295 cells assessed as cell growth at 100 uM after 48 hrs by SRB assay; settings: SF-295, 48 h, read-out: Activity
RXF 393 [6] = assay: Growth inhibition of human RXF393 cells assessed as cell growth at 1 uM after 48 hrs by SRB assay; settings: RXF 393, 48 h, read-out: Activity
NCI-H322M = assay: Growth inhibition of human NCI-H322M cells assessed as cell growth at 0.1 uM after 48 hrs by SRB assay; settings: read-out: Activity
UO-31 = assay: Growth inhibition of human UO31 cells assessed as cell growth at 100 uM after 48 hrs by SRB assay; settings: UO-31, 48 h, read-out: Activity
NCI/ADR-RES = assay: Growth inhibition of human NCI/ADR-RES cells assessed as cell growth at 10 uM after 48 hrs by SRB assay; settings: read-out: Activity
IGROV-1 = assay: Growth inhibition of human IGROV1 cells assessed as cell growth at 10 uM after 48 hrs by SRB assay; settings: IGROV-1, 48 h, read-out: Activity
OVCAR-5 = assay: Growth inhibition of human OVCAR5 cells assessed as cell growth at 1 uM after 48 hrs by SRB assay; settings: OVCAR-5, 48 h, read-out: Activity
KM12 = assay: Growth inhibition of human KM12 cells assessed as cell growth at 1 uM after 48 hrs by SRB assay; settings: KM12, 48 h, read-out: Activity
HCC 2998 = assay: Growth inhibition of human HCC2998 cells assessed as cell growth at 1 uM after 48 hrs by SRB assay; settings: HCC 2998, 48 h, read-out: Activity
UACC-257 = assay: Growth inhibition of human UACC257 cells assessed as cell growth at 0.1 uM after 48 hrs by SRB assay; settings: UACC-257, 48 h, read-out: Activity
SN12C = assay: Growth inhibition of human SN12C cells assessed as cell growth at 0.1 uM after 48 hrs by SRB assay; settings: read-out: Activity
SNB-19 = assay: Growth inhibition of human SNB19 cells assessed as cell growth at 0.1 uM after 48 hrs by SRB assay; settings: SNB-19, 48 h, read-out: Activity
OVCAR-8 [7] = assay: Growth inhibition of human OVCAR8 cells after 48 hrs by […] growth inhibition assay; settings: OVCAR-8, 48 h
M14 = assay: Growth inhibition of human M14 cells assessed as cell growth at 0.1 uM after 48 hrs by SRB assay; settings: M14, 48 h, read-out: Activity
SK-OV-3 = assay: Growth inhibition of human SKOV3 cells assessed as cell growth at 10 uM after 48 hrs by SRB assay; settings: SK-OV-3, 48 h, read-out: Activity
UACC-62 = assay: Growth inhibition of human UACC62 cells assessed as cell growth at 1 uM after 48 hrs by SRB assay; settings: UACC-62, 48 h, read-out: Activity
OVCAR-3 = assay: Growth inhibition of human OVCAR3 cells assessed as cell growth at 0.1 uM after 48 hrs by SRB assay; settings: OVCAR-3, 48 h, read-out: Activity
MCF7 = assay: Growth inhibition of human MCF7 cells assessed as cell growth at 1 uM after 48 hrs by SRB assay; settings: MCF7, 48 h, read-out: Activity
[8] = read-out: LC50 (the source's name)
[9] = read-out: pLC50 (the source's name) (converted)

`CNC(=O)NC[C@H]1O[C@@H](n2cnc3c(NC(=O)Nc4ccccc4)ncnc32)[C@H](O[Si](C)(C)C(C)(C)C)[C@@H]1O[Si](C)(C)C(C)(C)C` showed a growth at 100 µM (HT-29) of -80%, a growth at 100 µM (RXF 393 [1]) of -73% and a growth at 1000 µM (OVCAR-8 [2]) of -9%. For the same compound, the GI50 (786-0; read-out: GI50) was 2.04 µM, the CC50 (786-0; [8]) was 6.75 µM and the TGI (786-0; read-out: TGI) was 3.71 µM. It also gave a GI50 (786-0; read-out: pGI50 (converted)) of 2.04 µM, a CC50 (786-0; [9]) of 6.76 µM and a TGI (786-0; read-out: pTGI (converted)) of 3.72 µM. It also gave a growth at 1000 µM [3] of 4%, a growth at 10 µM (HCT-15) of 100% and a growth at 10 µM (SF-268) of 102%. The growth at 0.1 µM (A498) was 92%, the growth at 1 µM (BT-549 [4]) was 112% and the GI50 (EKVX; read-out: GI50) was 3.7 µM. The CC50 (EKVX; [8]) was greater than 100 µM, the TGI (EKVX; read-out: TGI) was 30.6 µM and the GI50 (EKVX; read-out: pGI50 (converted)) was 3.72 µM. The CC50 (EKVX; [9]) was greater than 100 µM, the TGI (EKVX; read-out: pTGI (converted)) was 30.9 µM and the GI50 (BT-549 [5]; read-out: GI50) was 2.94 µM. The CC50 (BT-549 [5]; [8]) was greater than 100 µM, the TGI (BT-549 [5]; read-out: TGI) was 8.18 µM and the GI50 (BT-549 [5]; read-out: pGI50 (converted)) was 2.95 µM. The CC50 (BT-549 [5]; [9]) was greater than 100 µM, the TGI (BT-549 [5]; read-out: pTGI (converted)) was 8.13 µM and the growth at 1 µM (HOP-62) was 108%. It also gave a growth at 100 µM (U-251) of 2%, a growth at 10 µM (NCI-H460) of 88% and a growth at 1000 µM (SK-MEL-5) of -99%. It also gave a growth at 100 µM (SF-295) of 7%, a growth at 1 µM (RXF 393 [6]) of 73% and a growth at 0.1 µM (NCI-H322M) of 102%. It also gave a growth at 100 µM (UO-31) of -2%, a growth at 10 µM (NCI/ADR-RES) of 103% and a growth at 10 µM (IGROV-1) of 98%. The growth at 1 µM (OVCAR-5) was 99%, the growth at 1 µM (KM12) was 111% and the growth at 1 µM (HCC 2998) was 93%. The growth at 0.1 µM (UACC-257) was 97%, the growth at 0.1 µM (SN12C) was 100% and the growth at 0.1 µM (SNB-19) was 97%. The GI50 (OVCAR-8 [7]; read-out: GI50) was 4.01 µM, the CC50 (OVCAR-8 [7]; [8]) was greater than 100 µM and the TGI (OVCAR-8 [7]; read-out: TGI) was 40.1 µM. It also gave a GI50 (OVCAR-8 [7]; read-out: pGI50 (converted)) of 3.98 µM, a CC50 (OVCAR-8 [7]; [9]) greater than 100 µM and a TGI (OVCAR-8 [7]; read-out: pTGI (converted)) of 39.8 µM. For the same compound, the growth at 0.1 µM (M14) was 101%, the growth at 10 µM (SK-OV-3) was 107% and the growth at 1 µM (UACC-62) was 100%. For the same compound, the growth at 0.1 µM (OVCAR-3) was 111% and the growth at 1 µM (MCF7) was 96%.
In the case of `CNC(=O)OC[C@H]1O[C@@H](n2cnc3c(NC(=O)Nc4ccccc4)ncnc32)[C@H](O[Si](C)(C)C(C)(C)C)[C@@H]1O[Si](C)(C)C(C)(C)C`, the growth at 10 µM (HCT-15) is reported as 103%, the growth at 10 µM (SF-268) is reported as 85.2% and the growth at 10 µM (NCI-H460) is reported as 103%. It also gave a growth at 10 µM (NCI/ADR-RES) of 97.6%, a growth at 10 µM (IGROV-1) of 111% and a growth at 10 µM (SK-OV-3) of 106%.
